Source: publication PMC5361891 (Journal of chemical information and modeling, 2017)

Key:
human 5-HT2AR = human 5-HT2AR (Homo sapiens, UniProt P28223); experiment: Radioligand binding assay, [3H]-Ketanserin displacement; settings: read-out: Ki 5-HT2A; HEK293 cell membranes, 1.0 nM [3H]-Ketanserin, 37 °C 1 h
human 5-HT7bR = human 5-HT7bR (Homo sapiens, UniProt P34969); experiment: Radioligand binding assay, [3H]-5-CT displacement; settings: read-out: Ki 5-HT7; HEK293 cell membranes, 0.6 nM [3H]-5-CT, 37 °C 1 h
Chain of human 5-HT7bR (P34969 1-432 limits assumed): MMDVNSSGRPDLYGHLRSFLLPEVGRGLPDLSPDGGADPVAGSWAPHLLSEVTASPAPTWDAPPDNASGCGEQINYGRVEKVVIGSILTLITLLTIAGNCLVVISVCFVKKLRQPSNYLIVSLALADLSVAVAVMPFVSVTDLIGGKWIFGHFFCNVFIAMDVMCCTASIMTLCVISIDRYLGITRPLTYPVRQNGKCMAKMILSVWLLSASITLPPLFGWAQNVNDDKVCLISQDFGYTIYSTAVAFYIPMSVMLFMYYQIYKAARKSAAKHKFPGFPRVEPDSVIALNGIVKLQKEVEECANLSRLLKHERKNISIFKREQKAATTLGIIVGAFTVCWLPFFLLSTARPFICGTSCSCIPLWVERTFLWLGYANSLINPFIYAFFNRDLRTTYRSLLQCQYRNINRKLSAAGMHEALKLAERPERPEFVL

human 5-HT6R = human 5-HT6R (Homo sapiens, UniProt P50406); experiment: Radioligand binding assay, [3H]-LSD displacement; settings: read-out: Ki 5-HT6; HEK293 cell membranes, 2 nM [3H]-LSD, 37 °C 1 h
Chain of human 5-HT6R (P50406 whole entry): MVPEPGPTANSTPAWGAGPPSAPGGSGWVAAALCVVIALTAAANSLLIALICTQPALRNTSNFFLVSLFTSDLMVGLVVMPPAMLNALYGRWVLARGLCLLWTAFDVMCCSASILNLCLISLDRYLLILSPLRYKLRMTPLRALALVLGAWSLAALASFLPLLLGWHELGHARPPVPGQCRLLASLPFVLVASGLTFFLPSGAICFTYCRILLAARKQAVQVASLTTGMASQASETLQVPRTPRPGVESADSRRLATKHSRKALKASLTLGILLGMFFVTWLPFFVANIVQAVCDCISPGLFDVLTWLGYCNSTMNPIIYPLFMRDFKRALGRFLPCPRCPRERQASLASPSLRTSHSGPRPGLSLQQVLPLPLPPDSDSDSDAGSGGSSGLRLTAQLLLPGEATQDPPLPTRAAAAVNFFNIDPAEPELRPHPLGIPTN

5-HT1AR = settings: affinity toward 5-HT1AR; cited from earlier work

Chain of human 5-HT2AR (P28223 whole entry): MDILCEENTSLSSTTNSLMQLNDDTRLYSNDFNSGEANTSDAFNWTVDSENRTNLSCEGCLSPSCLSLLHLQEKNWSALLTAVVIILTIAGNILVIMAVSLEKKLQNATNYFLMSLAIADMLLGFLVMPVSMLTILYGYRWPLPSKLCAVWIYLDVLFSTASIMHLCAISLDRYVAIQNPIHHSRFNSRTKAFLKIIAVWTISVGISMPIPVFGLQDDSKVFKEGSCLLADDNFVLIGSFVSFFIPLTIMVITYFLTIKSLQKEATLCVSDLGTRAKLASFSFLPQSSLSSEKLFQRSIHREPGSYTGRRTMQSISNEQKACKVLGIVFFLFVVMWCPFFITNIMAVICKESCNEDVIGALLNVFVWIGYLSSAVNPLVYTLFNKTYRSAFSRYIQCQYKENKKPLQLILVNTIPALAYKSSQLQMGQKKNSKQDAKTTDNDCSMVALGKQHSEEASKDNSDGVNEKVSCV

Compound	Ki (human 5-HT2AR)	Ki (human 5-HT7bR)	Ki (human 5-HT6R)	Ki (5-HT1AR)
COC(=O)c1ccc(C2c3c(-c4ccccc4O)n[nH]c3C(=O)N2Cc2ccncc2)cc1 (stereo not shown) [D174-0581]	3.75 µM	6.48 µM	13.5 µM	
COc1ccccc1N1CCN(CCCCNC(=O)C23CC4CC(C2)C(C4)C3)CC1 [NBUMP, 4-[4-(1-noradamantanecarboxamido)butyl]-1-(2-methoxyphenyl)piperazine]				0.0001 µM
